The data set in a line: Bioavailability in the baboon: plasma levels of omoconazole after oral administration (microbiological agar diffusion assay, test germ Candida macedoniensis). The class given is in vivo, babouin. The conditions noted are these: fasted baboons. The procedure:
La biodisponibilité des compositions pharmaceutiques selon l'invention a été étudiée chez le babouin en comparaison avec le produit (I) seul.
Les études ont été conduites à la dose de 100 mg/kg d'omoconazole et les produits ont été administrés aux singes à jeun par sonde gastrique. […] Les dosages des taux plasmatiques d'omoconazole ont été effectués par une méthode microbiologique réalisée à l'aide d'une technique de diffusion en milieu gélosé avec comme germe test Candida macedoniensis.
Des essais ont été effectués selon la même méthode, avec les formulations des exemples 4, 5, 6, 9 et 14. Pour les 3 premiers cas, les formulations ont été administrées telles quelles (solution) tandis que les compositions des exemples 9 et 14 et l'omoconazole ont été administrés dans des gélules No. 2. […]

Read-outs that look alike come from different tables or passages of the source.

Regarding `C/C(=C(/OCCOc1ccc(Cl)cc1)c1ccc(Cl)cc1Cl)n1ccnc1` [Omoconazole], for the setting “baboon, 100 mg/kg omoconazole oral, mean of 4 animals, Ex 4, 5, 6 given as such, Ex 9, 14 and omoconazole in No. 2 capsules, read-out: Aire sous la courbe”, the AUC was determined as 11600 ng·h/mL. For the same compound, the Cmax runs as follows: (baboon, 100 mg/kg omoconazole oral, mean of 4 animals, Ex 4, 5, 6 given as such, Ex 9, 14 and omoconazole in No. 2 capsules, read-out: Concentration maximale) 1350 ng/mL; (100 mg/kg omoconazole by gastric tube, mean of 3 animals) 1,35 µg/ml. Moreover, the Tmax (baboon, 100 mg/kg omoconazole oral, mean of 4 animals, Ex 4, 5, 6 given as such, Ex 9, 14 and omoconazole in No. 2 capsules, read-out: Temps de C. Max.) was found to be 5.5 h. The AUC at 24 h (baboon, po, 100 mg/kg omoconazole by gastric tube, mean of 3 animals, sampling up to 24 h, read-out: aire sous la courbe) came to 11500 ng·h/mL.
